Here are results for five compounds from patent US9062124B2, “GIP-based mixed agonists for treatment of metabolic disorders and obesity” (priority 2008, dated 2015).

One experiment addresses T1, GLP-1 receptor (Homo sapiens, UniProt P43220).
T1 construct: expressed in transfected cells; host or cells: HEK293
Kind of experiment: cAMP synthesis functional assay (firefly luciferase reporter in HEK293 cells), GLP-1 receptor. Format: cell-based. The settings on record: for % activity at the GLP-1 receptor: Table 5; for % Relative activity at the Receptor for GLP-1: Table 8.

The subject of experiment [1] is glucagon receptor, GLP-1 receptor or GIP receptor. Description: Agonist profile across receptors assigned from the cAMP reporter assay data. The note with it: assigned from the in vitro EC50 data of Tables 1-4. Format: cell-based.
For another experiment, the target named is T2, GIP receptor (Homo sapiens, UniProt P48546).
T2 construct: expressed in transfected cells; host or cells: HEK293
T2 sequence (P48546 22-466): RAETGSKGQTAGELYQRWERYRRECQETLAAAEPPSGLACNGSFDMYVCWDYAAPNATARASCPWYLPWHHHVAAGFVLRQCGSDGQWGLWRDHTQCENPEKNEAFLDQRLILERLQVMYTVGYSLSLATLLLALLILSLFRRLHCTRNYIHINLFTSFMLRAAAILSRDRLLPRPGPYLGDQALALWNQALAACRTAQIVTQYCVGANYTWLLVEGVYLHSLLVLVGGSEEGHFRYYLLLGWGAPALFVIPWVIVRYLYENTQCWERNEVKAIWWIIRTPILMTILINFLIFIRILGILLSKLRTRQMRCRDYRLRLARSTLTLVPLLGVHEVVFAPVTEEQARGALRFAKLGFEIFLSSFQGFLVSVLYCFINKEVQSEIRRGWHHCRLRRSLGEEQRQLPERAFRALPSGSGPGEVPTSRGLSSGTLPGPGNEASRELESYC
Kind of experiment: cAMP synthesis functional assay (firefly luciferase reporter in HEK293 cells), GIP receptor. Format: cell-based. The note with it: for % activity at the GIP receptor: Table 5; for % Relative activity at the Receptor for GIP: Table 8. (In general: In a reporter assay the amount or activity of a reporter protein is the signal.)

Another experiment addresses T3, glucagon receptor (Homo sapiens, UniProt P47871).
T3 construct: expressed in transfected cells; host or cells: HEK293
Kind of experiment: cAMP synthesis functional assay (firefly luciferase reporter in HEK293 cells), glucagon receptor. Format: cell-based. The note with it: for % activity at the glucagon receptor: Table 5; for % Relative activity at the Receptor for Glucagon: Table 8.

Experiment [2] in a line: Body weight of mice after peptide injection. The settings on record: DIO mice; for body weight: Example 31, subcutaneous daily for 1 week; for body weight / total change in body weight (weight loss, decrease): 10 nmol/kg; for total change in body weight (weight loss, decrease): Example 41, subcutaneous daily for 7 days, Day 7.
Setting [3] is: relative to the standard (Std.) EC50 of the same run.
The mark [4] stands for this setting: Glucagon Receptor EC50, cAMP luciferase reporter assay as in Example 16.
Setting [5] is: Table 4, relative to the native hormone.

The term EC50 denotes the midpoint of the concentration-response curve. A low value points to an effect from little substance.

*1 amine or outer side, *2 acyl side, *3 side chain or, on linkers, in order; H or OH if unused. Where a SMILES comes first, the peptide text is derived from it. Bridges are numbered along the chain shown (N, C = ends). Where no end group is shown, it is not given here. Side-chain parts run from the residue outwards. [ ]: non-standard residue; d: D form. The star is where a group is joined. PEG 40 kDa = PEG (40 kDa) covalently attached to Cys; γGlu = O=C(O)[C@H](CCC(=O)[*:2])N[*:1]; Palmitoyl = CCCCCCCCCCCCCCCC(=O)*; Myristoyl = CCCCCCCCCCCCCC(=O)*; Aib = CC(C)(N)C(=O)O

T1 sequence (P43220 24-463, species assumed): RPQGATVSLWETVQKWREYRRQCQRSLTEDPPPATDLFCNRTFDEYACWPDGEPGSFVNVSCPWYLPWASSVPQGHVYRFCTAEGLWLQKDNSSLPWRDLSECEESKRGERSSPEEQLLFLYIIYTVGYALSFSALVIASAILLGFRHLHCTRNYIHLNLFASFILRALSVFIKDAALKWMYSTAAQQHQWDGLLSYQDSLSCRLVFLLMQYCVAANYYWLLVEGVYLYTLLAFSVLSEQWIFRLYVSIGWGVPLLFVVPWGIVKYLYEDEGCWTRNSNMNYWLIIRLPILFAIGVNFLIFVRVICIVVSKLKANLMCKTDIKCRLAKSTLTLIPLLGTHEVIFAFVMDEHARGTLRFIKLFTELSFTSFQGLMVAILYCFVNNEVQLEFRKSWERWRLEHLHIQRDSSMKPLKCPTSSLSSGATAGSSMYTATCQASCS
T3 sequence (P47871 26-477): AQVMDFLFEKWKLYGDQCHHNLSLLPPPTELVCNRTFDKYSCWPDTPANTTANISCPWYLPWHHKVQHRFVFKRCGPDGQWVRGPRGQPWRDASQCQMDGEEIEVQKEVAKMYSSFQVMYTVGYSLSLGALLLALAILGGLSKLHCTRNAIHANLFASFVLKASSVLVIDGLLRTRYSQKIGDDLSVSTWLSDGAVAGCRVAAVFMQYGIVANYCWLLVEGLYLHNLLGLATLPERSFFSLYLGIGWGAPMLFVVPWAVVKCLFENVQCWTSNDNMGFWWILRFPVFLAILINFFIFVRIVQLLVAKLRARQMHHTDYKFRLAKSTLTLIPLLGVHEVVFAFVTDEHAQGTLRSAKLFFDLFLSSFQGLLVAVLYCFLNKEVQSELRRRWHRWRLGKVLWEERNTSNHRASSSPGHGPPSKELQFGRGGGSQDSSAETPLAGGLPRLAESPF

For `CCCCCCCCCCCCCC(=O)NCCCC[C@H](NC(=O)[C@H](CO)NC(=O)[C@@H]1CCCN1C(=O)[C@@H]1CCCN1C(=O)[C@@H]1CCCN1C(=O)[C@H](C)NC(=O)CNC(=O)[C@H](CO)NC(=O)[C@H](CO)NC(=O)[C@@H]1CCCN1C(=O)CNC(=O)CNC(=O)[C@H](C)NC(=O)[C@H](CC(C)C)NC(=O)[C@H](CC(C)C)NC(=O)[C@H](Cc1c[nH]c2ccccc12)NC(=O)[C@H](CC(N)=O)NC(=O)[C@@H](NC(=O)[C@H](Cc1ccccc1)NC(=O)[C@H](CCC(=O)O)NC(=O)C(C)(C)NC(=O)[C@H](C)NC(=O)[C@H](C)NC(=O)[C@H](CCC(N)=O)NC(=O)[C@H](CCCCN)NC(=O)[C@H](CC(=O)O)NC(=O)[C@H](CC(C)C)NC(=O)[C@H](Cc1ccc(O)cc1)NC(=O)[C@@H](NC(=O)[C@H](CO)NC(=O)[C@H](Cc1ccc(O)cc1)NC(=O)[C@H](CC(=O)O)NC(=O)[C@H](CO)NC(=O)[C@@H](NC(=O)[C@H](Cc1ccccc1)NC(=O)[C@@H](NC(=O)CNC(=O)[C@H](CCC(N)=O)NC(=O)C(C)(C)NC(=O)[C@@H](N)Cc1ccc(O)cc1)[C@@H](C)O)[C@@H](C)O)[C@@H](C)CC)C(C)C)C(N)=O` [mt-277] (H-Y[Aib]QGTFTSDYSIYLDKQAA[Aib]EFVNWLLAGGPSSGAPPPSK(Myristoyl)-NH2; N-terminus assumed), the “% activity at the GLP-1 receptor” value on GLP-1 receptor (relative to the native hormone) is given as 224%. The “GLP-1 Receptor relative activity” value at GLP-1 receptor (setting [3]) was 224.42%. The “receptor activity profile (glucagon / GLP-1 / GIP agonism)” value in experiment [1] is “exhibited activity at the GIP, GLP-1, and glucagon receptors”. Besides, the “% activity at the GIP receptor” value at GIP receptor (relative to the native hormone) is on record as 446%. Also, on GIP receptor (setting [3]), the “GIP Receptor relative activity” value is reported as 455.77%. Further, on glucagon receptor (setting [4]), the concentration for a half-maximal effect (EC50) worked out at 0.0215 nM. In addition, the “% activity at the glucagon receptor” value at glucagon receptor (relative to the native hormone) stood at 235%. Besides, the “Glucagon Receptor relative activity” value on glucagon receptor (setting [3]) came to 235.35%. The body weight entry in experiment [2] was “caused significant weight loss in the mice”.
Regarding `CCCCCCCCCCCCCCCC(=O)NCCCC[C@H](NC(=O)[C@H](CO)NC(=O)[C@@H]1CCCN1C(=O)[C@@H]1CCCN1C(=O)[C@@H]1CCCN1C(=O)[C@H](C)NC(=O)CNC(=O)[C@H](CO)NC(=O)[C@H](CO)NC(=O)[C@@H]1CCCN1C(=O)CNC(=O)CNC(=O)[C@H](C)NC(=O)[C@H](CC(C)C)NC(=O)[C@H](CC(C)C)NC(=O)[C@H](Cc1c[nH]c2ccccc12)NC(=O)[C@H](CC(N)=O)NC(=O)[C@@H](NC(=O)[C@H](Cc1ccccc1)NC(=O)[C@H](CCC(=O)O)NC(=O)C(C)(C)NC(=O)[C@H](C)NC(=O)[C@H](C)NC(=O)[C@H](CCC(N)=O)NC(=O)[C@H](CCCCN)NC(=O)[C@H](CC(=O)O)NC(=O)[C@H](CC(C)C)NC(=O)[C@H](Cc1ccc(O)cc1)NC(=O)[C@@H](NC(=O)[C@H](CO)NC(=O)[C@H](Cc1ccc(O)cc1)NC(=O)[C@H](CC(=O)O)NC(=O)[C@H](CO)NC(=O)[C@@H](NC(=O)[C@H](Cc1ccccc1)NC(=O)[C@@H](NC(=O)CNC(=O)[C@H](CCC(N)=O)NC(=O)C(C)(C)NC(=O)[C@@H](N)Cc1ccc(O)cc1)[C@@H](C)O)[C@@H](C)O)[C@@H](C)CC)C(C)C)C(N)=O` [mt-278] (H-Y[Aib]QGTFTSDYSIYLDKQAA[Aib]EFVNWLLAGGPSSGAPPPSK(Palmitoyl)-NH2; N-terminus assumed), the “% activity at the GLP-1 receptor” value at GLP-1 receptor (relative to the native hormone) was 460%. Moreover, the “GLP-1 Receptor relative activity” value at GLP-1 receptor (setting [3]) was determined as 459.52%. Also, in experiment [1], the “receptor activity profile (glucagon / GLP-1 / GIP agonism)” value was “exhibited activity at the GIP, GLP-1, and glucagon receptors”. Further, the concentration for a half-maximal effect (EC50) at GIP receptor (GIP Receptor EC50, cAMP luciferase reporter assay as in Example 16) stood at 0.0028 nM; on glucagon receptor (setting [4]) it was 0.0086 nM. In addition, the “% activity at the GIP receptor” value at GIP receptor (relative to the native hormone) is on record as 846%. In addition, the “GIP Receptor relative activity” value on GIP receptor (setting [3]) turned out to be 846.43%. For the same compound, the “% activity at the glucagon receptor” value on glucagon receptor (relative to the native hormone) is reported as 588%. In addition, the “Glucagon Receptor relative activity” value at glucagon receptor (setting [3]) is recorded as 588.37%. Besides, the body weight result in experiment [2] is “caused significant weight loss in the mice”.
With `CCCCCCCCCCCCCCCC(=O)N[C@@H](CCC(=O)N[C@@H](CCC(=O)NCCCC[C@H](NC(=O)[C@H](CO)NC(=O)[C@@H]1CCCN1C(=O)[C@@H]1CCCN1C(=O)[C@@H]1CCCN1C(=O)[C@H](C)NC(=O)CNC(=O)[C@H](CO)NC(=O)[C@H](CO)NC(=O)[C@@H]1CCCN1C(=O)CNC(=O)CNC(=O)[C@H](C)NC(=O)[C@H](CC(C)C)NC(=O)[C@H](CC(C)C)NC(=O)[C@H](Cc1c[nH]c2ccccc12)NC(=O)[C@H](CC(N)=O)NC(=O)[C@@H](NC(=O)[C@H](Cc1ccccc1)NC(=O)[C@H](CCC(=O)O)NC(=O)C(C)(C)NC(=O)[C@H](C)NC(=O)[C@H](C)NC(=O)[C@H](CCC(N)=O)NC(=O)[C@H](CCCCN)NC(=O)[C@H](CC(=O)O)NC(=O)[C@H](CC(C)C)NC(=O)[C@H](Cc1ccc(O)cc1)NC(=O)[C@@H](NC(=O)[C@H](CO)NC(=O)[C@H](Cc1ccc(O)cc1)NC(=O)[C@H](CC(=O)O)NC(=O)[C@H](CO)NC(=O)[C@@H](NC(=O)[C@H](Cc1ccccc1)NC(=O)[C@@H](NC(=O)CNC(=O)[C@H](CCC(N)=O)NC(=O)C(C)(C)NC(=O)[C@@H](N)Cc1ccc(O)cc1)[C@@H](C)O)[C@@H](C)O)[C@@H](C)CC)C(C)C)C(N)=O)C(=O)O)C(=O)O` [mt-368] (H-Y[Aib]QGTFTSDYSIYLDKQAA[Aib]EFVNWLLAGGPSSGAPPPSK([γGlu-γGlu-Palmitoyl])-NH2; N-terminus assumed), at GLP-1 receptor (setting [5]), the “GLP-1 Receptor relative activity” value worked out at 418.93%. The “% Relative activity at the Receptor for GLP-1” value at GLP-1 receptor was found to be 418.93%. Also, the “GIP Receptor relative activity” value at GIP receptor (setting [5]) is 296.07%. The “% Relative activity at the Receptor for GIP” value on GIP receptor is 296.07%. At glucagon receptor (Glucagon Receptor EC50, nM, Table 4), this compound came in with a half-maximal effective concentration (EC50) of 0.0069 nM. Also, the “Glucagon Receptor relative activity” value at glucagon receptor (setting [5]) is recorded as 491.82%. Moreover, the “% Relative activity at the Receptor for Glucagon” value on glucagon receptor turned out to be 491.82%. Besides, the “total change in body weight (weight loss, decrease)” value in experiment [2] is recorded as ~22%.
As to `CCCCCCCCCCCCCCCC(=O)N[C@@H](CCC(=O)N[C@@H](CCC(=O)NCCCC[C@H](NC(=O)[C@H](CC(=O)O)NC(=O)[C@H](CO)NC(=O)[C@@H](NC(=O)[C@H](Cc1ccccc1)NC(=O)[C@@H](NC(=O)CNC(=O)[C@H](CCC(=O)O)NC(=O)C(C)(C)NC(=O)[C@@H](N)Cc1ccc(O)cc1)[C@@H](C)O)[C@@H](C)O)C(=O)N[C@@H](CO)C(=O)N[C@H](C(=O)N[C@@H](Cc1ccc(O)cc1)C(=O)N[C@@H](CC(C)C)C(=O)N[C@@H](CC(=O)O)C(=O)N[C@@H](CCCCN)C(=O)N[C@@H](CCC(N)=O)C(=O)N[C@@H](C)C(=O)N[C@@H](C)C(=O)NC(C)(C)C(=O)N[C@@H](CCC(=O)O)C(=O)N[C@@H](Cc1ccccc1)C(=O)N[C@H](C(=O)N[C@@H](CC(N)=O)C(=O)N[C@@H](Cc1c[nH]c2ccccc12)C(=O)N[C@@H](CC(C)C)C(=O)N[C@@H](CC(C)C)C(=O)N[C@@H](C)C(=O)NCC(=O)NCC(=O)N1CCC[C@H]1C(=O)N[C@@H](CO)C(=O)N[C@@H](CO)C(=O)NCC(=O)N[C@@H](C)C(=O)N1CCC[C@H]1C(=O)N1CCC[C@H]1C(=O)N1CCC[C@H]1C(=O)N[C@@H](CO)C(=O)N[C@@H](CCCCN)C(N)=O)C(C)C)[C@@H](C)CC)C(=O)O)C(=O)O` [mt-369] (H-Y[Aib]EGTFTSDK([γGlu-γGlu-Palmitoyl])SIYLDKQAA[Aib]EFVNWLLAGGPSSGAPPPSK-NH2; N-terminus assumed), at GLP-1 receptor (setting [5]), the “GLP-1 Receptor relative activity” value was 385.05%. Further, the “% Relative activity at the Receptor for GLP-1” value at GLP-1 receptor came out at 385.05%. For the same compound, it took 0.0014 nM to reach a half-maximal effect at GIP receptor (GIP Receptor EC50, nM, Table 4) (EC50). In addition, the “GIP Receptor relative activity” value on GIP receptor (setting [5]) amounted to 204.26%. Further, the “% Relative activity at the Receptor for GIP” value on GIP receptor came out at 204.26%. For the same compound, the “Glucagon Receptor relative activity” value on glucagon receptor (setting [5]) stood at 1.54%. The “% Relative activity at the Receptor for Glucagon” value at glucagon receptor stood at 1.54%. For the same compound, in experiment [2], the “total change in body weight (weight loss, decrease)” value is given as ~25%.
On to “mt-170: lactam-containing GLP-1/GIP/glucagon triagonist peptide, C-terminal amide (Y[Aib]QGTFTSDYSIYLDEQAAKEFVNWLLAGGPSSGAPPPSC(PEG 40 kDa)-NH2; lactam 16-20)”, for which the “receptor activity profile (glucagon / GLP-1 / GIP agonism)” value in experiment [1] was “exemplary GLP-1/GIP/glucagon triagonist peptides”. Also, the “reduction of body weight” value in experiment [2] (Example 22, subcutaneous QW, 70 or 210 nmol/kg/week) is recorded as “a little more effective at reducing body weight in the mice as Chimera 2 AIB2, but not as effective as Chimera 2 AIB2 lactam”.
